Data reported in patent US20180228795A1, “COMBINATION THERAPY FOR CANCER” (Eli Lilly and Company, priority 2015, published 2018).

Legend:
Experiment in all cases: Antitumor effects in PDX mouse model of TNBC
Format in all cases: in vivo
PDX TNBC Model CTG-0869 = conditions: PDX model CTG-0869; A 10 mg/kg SC BID 3 days on/4 off ×4; B 7.5 mg/kg PO BID×28; versus vehicle
Excerpt: (§1) Establish PDX tumor models from viable human tumor tissue and serially passage in immunocompromised female mice a limited number of times. Using tumor fragments harvested from donor host animals, perform unilateral subcutaneous implants from a specific passage of the PDX tumor model on the flanks of the experimental animals. When tumor volumes reach approximately 150-250 mm^3 in size, randomize the animals by treatment arm by randomization techniques well known in the art and place into their respective treatment groups using 1 animal per treatment group (3 animals in an untreated group). Formulate CHK1 inhibitor, 5-(5-(2-(3-aminopropoxy)-6-methoxyphenyl)-1H-pyrazol-3-ylamino)pyrazine-2-carbonitrile methanesulfonate hydrate, (Compound A) every 14 days in 20% captisol (dissolved in water) and administer subcutaneously twice daily at a dose of 10 mg/kg on days 1/2/3 of a weekly cycle for 4 weeks (SC, BID [3 days on/4 off]×4). Formulate the PI3K/mTOR dual inhibitor, 8-[5-(1-hydroxy-1-methylethyl)pyridin-3-yl]-1-[(2S)-2-methoxypropyl]-3-methyl-1,3-dihydro-2H-imidazo[4,5-c]quinolin-2-one, (Compound B) weekly in 1% (HEC)/0.25% Tween 80 (Polysorbate 80)/0.05% Dow-Corning Antifoam 1510-US and administer by oral gavage twice-daily for 28 days (PO, BID×28) at a dose of 7.5 mg/kg. Dose combination treatment animals with both compounds according to the schedule described above for monotherapy, and dose vehicle treatment animals with vehicle according to the schedule for Compound B.
(§2) Test the combination of Compound A and Compound B, as well as their respective monotherapies, in 40 PDX models (Table 1) of TNBC. Assess antitumor efficacy of the treatment groups by measuring tumor volume via caliper measurements twice a week during the course of the study. Measure body weight twice weekly during the course of the study as a general indicator of tolerability.
(§3) Capture tumor size and body weight twice per week. Estimate tumor volume (V) by using the formula: V=(π/6)×L×W^2 where L=larger of measured diameter and W=smaller perpendicular diameter. Calculate relative tumor volume using the tumor volume measurement taken nearest to the last day of dosing for each animal (T), divided by the baseline tumor volume for that animal (T0), which is the volume recorded on or just prior to the first day of dosing, Y=T/T0. Calculate % ΔT/ΔC values using the formula % ΔT/ΔC=100(YT−1)/(YC−1), whereby YT or YC=geometric mean relative volume of the compound treated group or the control group, respectively. Tumor growth inhibition is observed in those instances where the calculated values for % ΔT/ΔC are less than 100% whereby greater inhibition results in smaller % ΔT/ΔC values. If ΔT<0, then a tumor regression value is calculated instead of % ΔT/ΔC whereby % Regression=100(YT−1). Note that negative values indicate regression. We collectively refer to % ΔT/ΔC and % Regression as % Response.
(§4) Examine relative tumor volume (final volume divided by baseline volume) on the last day of treatment or the last day on which data from all three treatment groups and vehicle is available, if it is earlier than the last day of treatment and at least 14 days after baseline. Expected additive relative volume is determined using the Bliss method (Bliss, C. I., Ann Appl Biol, 1939; 26(3):585-615). Specifically, denoting Y=relative volume, YExp=(Y1*Y2)/YV, where YExp=expected additive relative volume, Y1 and Y2 are the relative volumes in the single agent groups (Compound A and Compound B), and YV is the relative volume in the vehicle group. A range of additivity is defined around the expected additive relative volume via upper and lower limits as follows:
(§5) Yupper=max(2*YExp,YExp+0.2)
(§6) Ylower=min(YExp/2,YExp−0.2)
(§7) The upper limit of the range is the larger of 2-fold above or 20% above the expected additive relative volume, and the lower limit is the smaller of 2-fold below or 20% below the expected additive relative volume. […]

PDX TNBC Model CTG-1106 = conditions: PDX model CTG-1106; A 10 mg/kg SC BID 3 days on/4 off ×4; B 7.5 mg/kg PO BID×28; versus vehicle
Excerpt: as §1, §2, §3, §4, §5, §6, §7

PDX TNBC Model CTG-1151 = conditions: PDX model CTG-1151; A 10 mg/kg SC BID 3 days on/4 off ×4; B 7.5 mg/kg PO BID×28; versus vehicle
Excerpt: as §1, §2, §3, §4, §5, §6, §7

PDX TNBC Model CTG-1153 = conditions: PDX model CTG-1153; A 10 mg/kg SC BID 3 days on/4 off ×4; B 7.5 mg/kg PO BID×28; versus vehicle
Excerpt: as §1, §2, §3, §4, §5, §6, §7

PDX TNBC Model CTG-1520 = conditions: PDX model CTG-1520; A 10 mg/kg SC BID 3 days on/4 off ×4; B 7.5 mg/kg PO BID×28; versus vehicle
Excerpt: as §1, §2, §3, §4, §5, §6, §7

PDX TNBC Model MAXF 574 = conditions: PDX model MAXF 574; A 10 mg/kg SC BID 3 days on/4 off ×4; B 7.5 mg/kg PO BID×28; versus vehicle
Excerpt: as §1, §2, §3, §4, §5, §6, §7

PDX TNBC Model MAXF 857 = conditions: PDX model MAXF 857; A 10 mg/kg SC BID 3 days on/4 off ×4; B 7.5 mg/kg PO BID×28; versus vehicle
Excerpt: as §1, §2, §3, §4, §5, §6, §7

PDX TNBC Model ST035 = conditions: A 10 mg/kg SC BID 3 days on/4 off ×4, B 7.5 mg/kg PO BID×28, versus vehicle
Excerpt: as §1, §2, §3, §4, §5, §6, §7

PDX TNBC Model ST069 = conditions: A 10 mg/kg SC BID 3 days on/4 off ×4, B 7.5 mg/kg PO BID×28, versus vehicle
Excerpt: as §1, §2, §3, §4, §5, §6, §7

PDX TNBC Model ST1077 = conditions: A 10 mg/kg SC BID 3 days on/4 off ×4, B 7.5 mg/kg PO BID×28, versus vehicle
Excerpt: as §1, §2, §3, §4, §5, §6, §7

PDX TNBC Model ST2057 = conditions: A 10 mg/kg SC BID 3 days on/4 off ×4, B 7.5 mg/kg PO BID×28, versus vehicle
Excerpt: as §1, §2, §3, §4, §5, §6, §7

PDX TNBC Model ST319 = conditions: A 10 mg/kg SC BID 3 days on/4 off ×4, B 7.5 mg/kg PO BID×28, versus vehicle
Excerpt: as §1, §2, §3, §4, §5, §6, §7

PDX TNBC Model ST430 = conditions: A 10 mg/kg SC BID 3 days on/4 off ×4, B 7.5 mg/kg PO BID×28, versus vehicle
Excerpt: as §1, §2, §3, §4, §5, §6, §7

PDX TNBC Model ST518 = conditions: A 10 mg/kg SC BID 3 days on/4 off ×4, B 7.5 mg/kg PO BID×28, versus vehicle
Excerpt: as §1, §2, §3, §4, §5, §6, §7

Compound | % Rsp. (% ΔT/ΔC or % Regression) (PDX TNBC Model CTG-0869) | % Rsp. (% ΔT/ΔC or % Regression) (PDX TNBC Model CTG-1106) | % Rsp. (% ΔT/ΔC or % Regression) (PDX TNBC Model CTG-1151) | % Rsp. (% ΔT/ΔC or % Regression) (PDX TNBC Model CTG-1153) | % Rsp. (% ΔT/ΔC or % Regression) (PDX TNBC Model CTG-1520) | % Rsp. (% ΔT/ΔC or % Regression) (PDX TNBC Model MAXF 574) | % Rsp. (% ΔT/ΔC or % Regression) (PDX TNBC Model MAXF 857) | % Rsp. (% ΔT/ΔC or % Regression) (PDX TNBC Model ST035) | % Rsp. (% ΔT/ΔC or % Regression) (PDX TNBC Model ST069) | % Rsp. (% ΔT/ΔC or % Regression) (PDX TNBC Model ST1077) | % Rsp. (% ΔT/ΔC or % Regression) (PDX TNBC Model ST2057) | % Rsp. (% ΔT/ΔC or % Regression) (PDX TNBC Model ST319) | % Rsp. (% ΔT/ΔC or % Regression) (PDX TNBC Model ST430) | % Rsp. (% ΔT/ΔC or % Regression) (PDX TNBC Model ST518)
COc1cccc(OCCCN)c1-c1cc(Nc2cnc(C#N)cn2)n[nH]1.CS(=O)(=O)O [Compound A, 5-(5-(2-(3-aminopropoxy)-6-methoxyphenyl)-1H-pyrazol-3-ylamino)pyrazine-2-carbonitrile methanesulfonate hydrate] | 52.6% | −39.0% | −84.6% | −23.6% | 49.9% | 22.9% | 32.4% | 2.1% | −79.6% | 0.0% | 44.8% | 8.9% | 80.9% | −23.4%
CO[C@@H](C)Cn1c(=O)n(C)c2cnc3ccc(-c4cncc(C(C)(C)O)c4)cc3c21 [Compound B, 8-[5-(1-hydroxy-1-methylethyl)pyridin-3-yl]-1-[(2S)-2-methoxypropyl]-3-methyl-1,3-dihydro-2H-imidazo[4,5-c]quinolin-2-one] | 64.9% | −31.0% | 92.5% | 86.5% | 61.2% | 59.4% | 72.7% | 54.0% | 112.0% | 9.1% | 26.9% | 40.3% | 59.2% | 66.5%
